The values that follow come from patent publication US6949575B2, “Method of inhibiting amyloid protein aggregation and imaging amyloid deposits using aminoindane derivatives” (Pfizer Inc., priority 2000, dated 2005).

“And” between values parts separate entries of the source, which are not always exact repeats. Equal values may be shown once. Some results are limits rather than exact numbers.

One assay addresses T1, Soluble Aβ(1-40) peptide (Homo sapiens, UniProt P05067).
T1 construct: Soluble Aβ(1-40) peptide; purchased Bachem, Torrance, Calif
Put plainly: BASSR (Beta-Amyloid Self-Seeding Radioassay): inhibitors of self-seeded amyloid fibril growth. It counts as biochemical. Conditions: 30 μM soluble Aβ(1-40) + 125I-labeled Aβ(1-40), 37° C., 3 to 5 hours, filtration; replicate values. How it is done:
BASSR (Beta-Amyloid Self-Seeding Radioassay)
An assay for inhibitors of self-seeded amyloid fibril growth
Assay Buffer—[…] sodium phosphate, pH 7.5, 100 mM NaCl, 0.02% NaN3, 1 M urea (filter and store at 4° C.)
Soluble Aβ(1-40) peptide (Bachem, Torrance, Calif.)—2.2 mg/mL in deionized H2O (stored in aliquots at −20° C., keep on ice when thawed) will self-seed after 1 week storage. Typically, the solution should be stored until no lag phase is seen in the assay.
^125I-labeled Aβ(1-40)—150 to 350K cpm/μL in 100% acetonitrile—0.1% trifluoroacetic acid (TFA)—1% β-mercaptoethanol (aliquots stored at −20° C.). ^125I-labeled Aβ(1-40) can be made in accordance with the procedure set forth by H. Levine, III in Neurobiol. Aging, 16:755 (1995), which is hereby incorporated by reference, or this reagent may be purchased from Amersham, Arlington Heights, Ill. Final assay conditions: 30 μM soluble Aβ(1-40) in deionized water in assay buffer+20 to 50K cpm ^125I-labeled Aβ(1-40) per assay. Compound to be tested is dissolved in dimethylsulfoxide (DMSO), typically 5 to 50 mM stock, such that the final concentration of DMSO is <1% v/v in the assay. Assay: Reaction mixture for 50 assays (on ice) is comprised of 0.1 to 0.2 μL of ^125I-labeled A^125I-labeled Aβ(1-40)+1 μL of soluble Aβ(1-40)+13.5 μL assay buffer per assay. The following are the amounts of the components of the reaction mixture sufficient for 50 assay wells.
• 1) Prepare reaction mixture above by mixing components and storing on ice. • 2) Pipet 14.5 μL of reaction mixture into each of 50 wells on a polypropylene U-bottom 96-well microtiter plate on ice (Costar 3794). • 3) Add 1.7 μL of diluted compound to be tested to each well in a column of eight, including solvent control. Serial 3-fold dilutions from 1 mM (100 μM final) in assay buffer-urea=7 dilutions+zero. Each 96-well plate can therefore accommodate 11 samples+1 Congo Red control (0.039-5 μM final in 2-fold steps). • 4) Seal the plate with aluminum film (Beckman 538619) and incubate for 10 minutes on ice. • 5) Raise the temperature to 37° C. and incubate for 3 to 5 hours (depending on the lot of the peptide). • 6) Remove the aluminum film and add 200 μL/well of ice cold assay buffer with urea, collecting the radiolabeled fibrils by vacuum filtration through 0.2-μm pore size GVWP filters in 96-well plates (Millipore MAGV N22, Bedford, Mass.). Determine the radioactivity of the filters using standard methods well-known to those skilled in the art. BASST (Beta-Amyloid Self-Seeding, Thioflavin T)

The next assay concerns the target T2, Aβ (1-40) peptide (Homo sapiens, UniProt P05067).
T2 construct: Aβ (1-40) peptide in 20% HFIP
Put plainly: BAPA (Beta-Amyloid Peptide Aggregation, pH 6.0), filtration endpoint. Type of assay: biochemical. Conditions: Aβ(1-40) 33 μM, pH 6.0, 2 to 4 hours, room temperature. As to the method:
• 1) Prepare the reaction mix above by mixing the components and storing on ice. • 2) Pipet 14.5 μL of reaction mixture into each of 50 wells of a polystyrene U-bottom 96-well microtiter plate (Coming 25881-96) on ice. • 3) Add 1.7 μL of diluted compound to be tested to each well in a column of eight, including solvent control. Serial 3-fold dilutions from 1 mM (100 μM final) in assay buffer-urea=7 dilutions+zero. Each 96-well plate can therefore accommodate 11 samples+1 Congo Red control (0.039-5 μM final in 2-fold steps). • 4) Seal the plate with aluminum film and incubate for 10 minutes on ice. • 5) Raise the temperature to 37° C. and incubate for 3 to 5 hours (depends on the lot of the peptide). • 6) Remove the aluminum film and add 250 μL/well of 5 μM thioflavin T (ThT) [T-3516, Sigma-Aldrich] in 50 mM glycine-NaOH, pH 8.5. Read fluorescence on a plate reader (ex=440 nm/20 nm; em=485 nm/20 nm) within 5 minutes. BAPA (Beta-Amyloid Peptide Aggregation) This assay is used to provide a measure of inhibition by a compound against the aggregation behavior of the β-amyloid peptide. The purpose of this assay is to provide a higher volume method of assaying the amount of β-amyloid aggregation using an endpoint assay based on filtration. In this assay, hexafluoroisopropanol (HFIP) is used to break down the initial amyloid peptide to a monomer state and use a concentration of 33 μM which is high enough so that aggregation will occur at pH 6.0 in several hours. Methods: Beta-Amyloid Peptide Aggregation, pH 6.0 (BAPA) In a 96-well plate (Costar 3794), we add 25 μL 50 mM phosphate buffer, pH 6.0, 10 μL 0.5 mg/mL Aβ (1-40) peptide in 20% HFIP+0.1 μL/assay radioiodinated ^125I Aβ (1-40) [^125I Aβ(1-40)], and 1 μL of the compound to be tested starting at 50 mM with a concentration of DMSO<1%. Then, we incubate for 2 to 4 hours at room temperature. We stop the reaction with 200 μL of 50 mM phosphate buffer, pH 6.0, and filter it through a 0.2 μm 96-well filter plate (Millipore MAGU […]). We wash the filter plate with 100 μL of the same phosphate buffer. Aggregation was detected on a Microbeta counter after impregnating the filters with Meltilex (1450-441) and is corrected for background.

T1 sequence (P05067 672-711 limits assumed): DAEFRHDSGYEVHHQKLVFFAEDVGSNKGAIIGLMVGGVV
T2 sequence (P05067 672-711 limits assumed): as above

In the case of `CCCCCN(CCCCC)C1Cc2ccc(Nc3ccc([N+](=O)[O-])cc3C(=O)O)cc2C1` (stereo not drawn) [Example 1, 2-[(2-N,N-di-n-pentylamino)-indan-5-yl]amino-5-nitro-benzoic Acid], the IC50 was above 100 µM on Soluble Aβ(1-40) peptide and 33 µM on Aβ (1-40) peptide.

`COc1ccc(Nc2ccc3c(c2)CC(NCc2ccc(Cl)c(Cl)c2)C3)c(C(=O)O)c1` (stereo not drawn) [Example 5, 2-[2-(3,4-Dichlorobenzylamino)-indan-5-ylamino]-5-methoxy-benzoic acid]: the IC50 on Soluble Aβ(1-40) peptide was > 100 µM (2×) and 30 µM; against Aβ (1-40) peptide, 165 µM.

As for `CCCCCN(CCCCC)C1Cc2ccc(Nc3ccc(C)cc3C(=O)O)cc2C1` (stereo not drawn) [Example 6, 2-(2-Dipentylamino-indan-5-yl-amino)-5-methyl-benzoic acid], the concentration for half-maximal inhibition (IC50) at Soluble Aβ(1-40) peptide is above 100 µM; against Aβ (1-40) peptide, 118 µM.

Consider `CCCCCN(CCCCC)C1Cc2ccc(Nc3ccc(C(=O)O)cc3[N+](=O)[O-])cc2C1` (stereo not drawn) [Example 7, 4-(2-Dipentylamino-indan-5-yl-amino)-3-nitro-benzoic Acid], for which the IC50 on Soluble Aβ(1-40) peptide is > 100 µM (3×) and 15 µM; against Aβ (1-40) peptide, 118 µM.

Turning to `O=C(O)c1cc([N+](=O)[O-])ccc1Nc1ccc2c(c1)CC(NCc1ccc(F)cc1)C2` (stereo not drawn) [Example 10, 2-[2-(4-Fluorobenzylamino)-indan-5-ylamino]-5-nitro-benzoic acid], the concentration for half-maximal inhibition (IC50) was > 100 µM (2×) and 90 µM and 10 µM at Soluble Aβ(1-40) peptide; above 100 µM on Aβ (1-40) peptide.

Regarding `CCCCCNC1Cc2ccc(Nc3ccc([N+](=O)[O-])cc3C(=O)O)cc2C1` (stereo not drawn) [Example 12, 2-[2-(n-Pentylamino)-indan-5-ylamino]-5-nitro-benzoic acid], the IC50 on Soluble Aβ(1-40) peptide is above 100 µM; on Aβ (1-40) peptide, 5 µM.
